Active and inactive are the calls of the source. No cut-off for these calls is given here.
Key:
A2780 [1] = assay: Antiproliferative activity against human A2780 cells after 48 hrs by MTT assay; conditions: A2780, 48 h
[2] = Antiproliferative activity against human A2780/CDDP cells after 48 hrs by MTT assay
A549 = assay: cells; conditions: Homo sapiens, A549, 48 h
HeLa = assay: cells; conditions: Homo sapiens, 48 h
HUVEC [3] = assay: cells; conditions: Homo sapiens, 48 h
Description: Antiproliferative activity against HUVEC after 48 hrs by MTT assay

A2780 [4] = assay: Induction of nitric oxide generation in human A2780 cells at 100 to 1000 nM after 1 hr by DAF-FM DA staining-based assay; type: functional, cell-based
A2780 [5] = assay: Induction of nitric oxide generation in human A2780 cells at 100 uM after 150 mins by Griess assay; type: functional
T29 = assay: Induction of nitric oxide generation in human T29 cells at 100 uM after 150 mins by Griess assay; type: functional, cell-based
A2780 [6] = assay: Induction of nitric oxide generation in human A2780 cells at 500 nM after 24 hrs by Griess assay in presence of hemoglobin; type: functional, cell-based
A2780/CDDP = assay: Induction of nitric oxide generation in human A2780/CDDP cells at 500 nM after 24 hrs by Griess assay in presence of hemoglobin; type: functional, cell-based
A2780 [7] = assay: Induction of nitric oxide generation in human A2780 cells after 1 hr by DAF-FM DA staining-based assay; type: functional, cell-based
A2780 [8] = assay: Anticlonogenic activity against human A2780 cells assessed as inhibition of colony formation of cells at 5 to 20 nM after 48 hrs by gentian violet staining-based assay; type: functional, cell-based
MDA-MB-231 [9] = assay: Anticlonogenic activity against human gemcitabine-resistant human MDA-MB-231 cells assessed as inhibition of colony formation of cells at 20 to 80 nM after 48 hrs by gentian violet staining-based assay; type: functional, cell-based
A2780 [10] = assay: Anticlonogenic activity against human A2780 cells assessed as inhibition of colony formation of cells after 48 hrs by gentian violet staining-based assay; type: functional, cell-based
MDA-MB-231 [11] = assay: Anticlonogenic activity against human gemcitabine-resistant human MDA-MB-231 cells assessed as inhibition of colony formation of cells after 48 hrs by gentian violet staining-based assay; type: functional, cell-based
A2780 [12] = assay: Cell cycle arrest in human A2780 cells assessed as accumulation at G2/M phase at 20 to 80 nM after 24 hrs by propidium iodide staining-based flow cytometry; type: functional
A2780 [13] = assay: Cell cycle arrest in human A2780 cells assessed as accumulation at G2/M phase after 24 hrs by propidium iodide staining-based flow cytometry; type: functional
A2780 [14] = assay: Cell cycle arrest in human A2780 cells assessed as reduction at S phase at 20 to 80 nM after 24 hrs by propidium iodide staining-based flow cytometry; type: functional
A2780 [15] = assay: Cell cycle arrest in human A2780 cells assessed as reduction at G0/G1 phase at 20 to 80 nM after 24 hrs by propidium iodide staining-based flow cytometry; type: functional
A2780 [16] = assay: Induction of apoptosis in human A2780 cells assessed as early apoptotic cells at 20 to 80 nM after 24 hrs by annexin-V/propidium iodide staining-based flow cytometry; type: functional
A2780 [17] = assay: Induction of apoptosis in human A2780 cells assessed as late apoptotic cells at 20 to 80 nM after 24 hrs by annexin-V/propidium iodide staining-based flow cytometry; type: functional
A2780 [18] = assay: Induction of apoptosis in human A2780 cells assessed as increase in Bax protein expression after 24 hrs by Western blotting analysis; type: functional, cell-based
A2780 [19] = assay: Induction of apoptosis in human A2780 cells assessed as reduction in Bcl-2 protein expression after 24 hrs by Western blotting analysis; type: functional, cell-based
A2780 [20] = assay: Induction of apoptosis in human A2780 cells assessed as increase in p53 phosphorylation at 100 to 1000 nM after 24 hrs by Western blotting analysis; type: functional, cell-based
A2780 [21] = assay: Induction of apoptosis in human A2780 cells assessed as increase in PARP-1 cleavage at 100 to 1000 nM after 24 hrs by Western blotting analysis; type: functional, cell-based
[22] = Acute toxicity in KM mouse assessed as survival at 500 mg/kg, ip measured on day 14 relative to vehicle-treated control; type: organism-based; parameters: dose 500 mg/kg, route intraperitoneal; conditions: in vivo
[23] = Acute toxicity in KM mouse assessed as survival at 300 mg/kg, ip measured on day 14 relative to vehicle-treated control; type: organism-based; parameters: dose 300 mg/kg, route intraperitoneal; conditions: in vivo
[24] = Acute toxicity in KM mouse assessed as survival at 275 mg/kg, ip measured on day 14 relative to vehicle-treated control; type: organism-based; parameters: dose 275 mg/kg, route intraperitoneal; conditions: in vivo
[25] = Acute toxicity in KM mouse assessed as survival at 250 mg/kg, ip measured on day 14 relative to vehicle-treated control; type: organism-based; parameters: dose 250 mg/kg, route intraperitoneal; conditions: in vivo
[26] = Acute toxicity in KM mouse assessed as survival at 225 mg/kg, ip measured on day 14 relative to vehicle-treated control; type: organism-based; parameters: dose 225 mg/kg, route intraperitoneal; conditions: in vivo
[27] = Acute toxicity in KM mouse assessed as survival at 200 mg/kg, ip measured on day 14 relative to vehicle-treated control; type: organism-based; parameters: dose 200 mg/kg, route intraperitoneal; conditions: in vivo
[28] = Acute toxicity in ip dosed KM mouse; type: organism-based; conditions: in vivo
A2780 [29] = assay: Antitumor activity against human A2780 cells xenografted in BALB/C nude mouse at 15 mg/kg, ip administered once every 3 days measured on day 15 relative to vehicle-treated control; type: functional; conditions: route intraperitoneal, read-out: TGI
A2780 [30] = assay: Antitumor activity against human A2780 cells xenografted in BALB/C nude mouse at 30 mg/kg, ip administered once every 3 days measured on day 15 relative to vehicle-treated control; type: functional; conditions: route intraperitoneal, read-out: TGI
A2780 [31] = assay: Antitumor activity against human A2780 cells xenografted in BALB/C nude mouse assessed as loss in tumor weight at 15 to 30 mg/kg, ip administered once every 3 days measured after 15 days relative to vehicle-treated control; type: functional, organism-based
[32] = Antiproliferative activity against human SKOV3 cells after 48 hrs by MTT assay; conditions: SK-OV-3, 48 h
[33] = Antiproliferative activity against cisplatin-resistant human SKOV3 cells after 48 hrs by MTT assay; conditions: SK-OV-3, 48 h
[34] = Antiproliferative activity against human T29 cells after 48 hrs by MTT assay; conditions: T29, 48 h
HUVEC [35] = assay: Antiangiogenic activity against HUVEC assessed as suppression of tubule formation at 10 nM after overnight incubation by matrigel assay; type: functional, cell-based; conditions: Homo sapiens
HUVEC [36] = assay: Antiangiogenic activity against HUVEC assessed as disruption of tubule formation at 100 nM after overnight incubation by matrigel assay; type: functional, cell-based; conditions: Homo sapiens

SMILES: O=C(COc1ccc2ccc(=O)oc2c1)OCCOc1no[n+]([O-])c1S(=O)(=O)c1ccccc1
- IC50 (A2780 [1]): > 20 µM
- IC50 [2]: > 20 µM
- IC50 (A549): > 20 µM
- IC50 (HeLa): > 20 µM
- IC50 (HUVEC [3]): > 20 µM

SMILES: Cc1cc(=O)oc2cc(OCC(=O)OCCOc3no[n+]([O-])c3S(=O)(=O)c3ccccc3)ccc12
- IC50 (A2780 [1]): 3.65 µM
- IC50 [2]: 7.36 µM
- IC50 (A549): 6.92 µM
- IC50 (HeLa): 4.31 µM
- IC50 (HUVEC [3]): > 20 µM

SMILES: CCOC(=O)N1CCN(/[N+]([O-])=N/Oc2ccc([N+](=O)[O-])cc2[N+](=O)[O-])CC1
- Activity (A2780 [4]): Active
- IC50 (A2780 [1]): 0.63 µM
- IC50 [2]: 1.05 µM
- Activity (A2780 [5]): 48 µM
- IC50 (A549): 1.26 µM
- IC50 (HeLa): 3.56 µM
- IC50 (HUVEC [3]): 5.39 µM

SMILES: CCc1cc(=O)c2ccc(OCCOc3no[n+]([O-])c3S(=O)(=O)c3ccccc3)cc2o1
- IC50 (A2780 [1]): 3.33 µM
- IC50 [2]: 2.88 µM
- IC50 (A549): 5.45 µM
- IC50 (HeLa): 0.83 µM
- IC50 (HUVEC [3]): 1.03 µM

SMILES: Cc1cc(=O)oc2cc(Oc3no[n+]([O-])c3S(=O)(=O)c3ccccc3)ccc12
- IC50 (A2780 [1]): 2.99 µM
- IC50 [2]: 3.15 µM
- IC50 (A549): 5.55 µM
- IC50 (HeLa): > 20 µM
- IC50 (HUVEC [3]): 5.43 µM

SMILES: Cc1cc(=O)oc2cc(OCCOc3no[n+]([O-])c3S(=O)(=O)c3ccccc3)ccc12
- Activity (T29): Active
- Activity (A2780 [6]): inactive
- Activity (A2780/CDDP): inactive
- Activity (A2780 [7]): Dose-dependent effect
- Activity (A2780 [4]): Active
- inhibition (A2780 [8]): Active
- inhibition (MDA-MB-231 [9]): Active
- inhibition (A2780 [10]): Dose-dependent effect
- inhibition (MDA-MB-231 [11]): Dose-dependent effect
- Activity (A2780 [12]): 64.9%
- Activity (A2780 [13]): Dose-dependent effect
- Activity (A2780 [14]): Active
- Activity (A2780 [15]): Active
- Activity (A2780 [16]): 2.5%
- Activity (A2780 [17]): 2.5%
- Activity (A2780 [18]): Dose-dependent effect
- Activity (A2780 [19]): Dose-dependent effect
- Activity (A2780 [20]): Active
- Activity (A2780 [21]): Active
- survival at 14 day [22]: 10%
- survival at 14 day [23]: 30%
- survival at 14 day [24]: 40%
- survival at 14 day [25]: 60%
- survival at 14 day [26]: 90%
- survival at 14 day [27]: 100%
- LD50 [28]: 264 mg/kg
- inhibition in vivo at 15 mg/kg (A2780 [29]): 55.8%
- inhibition in vivo at 30 mg/kg (A2780 [30]): 65.5%
- Activity (A2780 [31]): Active
- IC50 (A2780 [1]): 0.014 µM
- IC50 [2]: 0.062 µM
- IC50 [32]: 0.083 µM
- IC50 [33]: 0.14 µM
- IC50 [34]: 0.014 µM
- Activity (HUVEC [35]): Active
- Activity (HUVEC [36]): Active
- Activity (A2780 [5]): 97 µM
- IC50 (A549): 0.024 µM
- IC50 (HeLa): 0.053 µM
- IC50 (HUVEC [3]): 0.034 µM

SMILES: COCCOc1no[n+]([O-])c1S(=O)(=O)c1ccccc1
- IC50 (A2780 [1]): > 2 µM
- IC50 [34]: > 2 µM

SMILES: Cc1cc(=O)oc2c(C)c(Oc3no[n+]([O-])c3S(=O)(=O)c3ccccc3)ccc12
- IC50 (A2780 [1]): 9.35 µM
- IC50 [2]: > 20 µM
- IC50 (A549): 11.7 µM
- IC50 (HeLa): > 20 µM
- IC50 (HUVEC [3]): > 20 µM

SMILES: Cc1cc(=O)oc2cc(Sc3cccc(Cl)n3)ccc12
- IC50 (A2780 [1]): 1.35 µM
- IC50 [2]: 1 µM
- Activity (A2780 [5]): inactive
- IC50 (A549): 3.25 µM
- IC50 (HeLa): 1.48 µM
- IC50 (HUVEC [3]): 5.89 µM

SMILES: Cc1cc(=O)oc2cc(OCCCOc3no[n+]([O-])c3S(=O)(=O)c3ccccc3)ccc12
- IC50 (A2780 [1]): 0.35 µM
- IC50 [2]: 0.36 µM
- IC50 (A549): 0.28 µM
- IC50 (HeLa): 0.26 µM
- IC50 (HUVEC [3]): 0.68 µM

SMILES: Cc1cc(=O)oc2cc(SCCOc3no[n+]([O-])c3S(=O)(=O)c3ccccc3)ccc12
- IC50 (A2780 [1]): 0.036 µM
- IC50 [2]: 0.14 µM
- IC50 (A549): 0.12 µM
- IC50 (HeLa): 0.024 µM
- IC50 (HUVEC [3]): 0.22 µM
